PubChem BioAssay (NCI)
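Results reflect a 48-hour exposure of cells in 96-well plates to compound at five concentrations. GI50: concentration for 50% inhibition of growth. TGI: concentration producing complete growth inhibition.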

Assays:
Experiment in all cases: NCI tumour cell line growth inhibition, 48 h
[1] = tested on: SK-MEL-5 melanoma
[2] = tested on: 786-0 renal
[3] = tested on: A498 renal
[4] = tested on: SK-OV-3 ovarian
[5] = tested on: KM12 colon
[6] = tested on: OVCAR-4 ovarian
[7] = tested on: SF-295 CNS
[8] = tested on: BT-549 breast
[9] = tested on: PC-3 prostate
[10] = tested on: LOX IMVI melanoma

Row | Structure (SMILES) | GI50 [1] [µM] | TGI [1] [µM] | GI50 [2] [µM] | TGI [2] [µM] | GI50 [3] [µM] | TGI [3] [µM] | GI50 [4] [µM] | TGI [4] [µM] | GI50 [5] [µM] | TGI [5] [µM] | GI50 [6] [µM] | TGI [6] [µM] | GI50 [7] [µM] | TGI [7] [µM] | GI50 [8] [µM] | TGI [8] [µM] | GI50 [9] [µM] | TGI [9] [µM] | GI50 [10] [µM] | TGI [10] [µM]
1 | O=C(N/N=C/c1ccc(O)cc1O)c1cccc(Nc2ccnc(C(F)(F)F)c2)c1 | 0.626 | 11.1 | 1.14 | 10.6 | 12.8 | > 51 | 1.22 | 18.3 | 2.73 | 16.2 | 0.573 | 51.5 | 1.88 | 45.8 | 1.45 | 50.8 | 3.01 | 34.2 | 0.501 | 12.5
2 | CN(C)CCNc1c2ccccc2nc2oc3ccccc3c12 | 8.09 | 20.5 | 5.39 | 29.2 | 3.28 | 13.8 | 7.11 | 28.5 | 6.84 | 33.9 | 9.45 | 37.9 | 5.99 | 24.6 | 5.67 | 18.4 | 3.4 | 19.5 | 4.35 | 14.9
3 | Cc1cc(-c2ccccn2)cc(C)c1/C=C/c1cncc(-c2nn[nH]n2)c1 | > 25 | > 25 | > 25 | > 25 | > 25 | > 25 | > 25 | > 25 | > 25 | > 25 | > 25 | > 25 | > 25 | > 25 | > 25 | > 25 | > 25 | > 25 | > 25 | > 25
4 | CCCCCCCCCNC(=O)/C=C/c1ccc(O)c(O)c1 | 1.34 | 10.8 | 14.3 | 29.7 | 16.2 | 32.1 | 19.4 | 49.5 | 9.02 | 23.6 | 13.4 | > 100 | 18.8 | 40.3 | 32.4 | > 100 | 3.61 | 36.2 | 11 | 29
5 | CCOC(=O)C#Cc1c(C(=O)OCC)nnn1Cc1ccc([N+](=O)[O-])cc1 | 8.86 | 21 | 3.29 | 10.8 | 15.2 | 28.5 | 21.9 | 51.1 | 10.2 | 24.1 | 2.54 | 7.14 | 18.9 | 38.1 | 5.07 | 17 | 10.2 | 22.4 | 0.949 | 2.29
6 | O=C(/C=C/C12c3ccccc3C(c3ccccc31)C1C(=O)NC(=O)C12)c1ccc(F)cc1 (stereo not given) | 1.72 | 3.16 | 1.79 | 3.35 | 1.68 | 3.11 | 2.79 | 8.03 | 1.78 | 3.43 | 3.46 | 13.2 | 2.01 | 4.24 | 1.69 | 3.42 | 1.66 | 3.38 | 1.67 | 3.28
